Patent publication US10052320B2, “Substituted quinoxalines as FGFR kinase inhibitors” (ASTEX THERAPEUTICS LIMITED, priority 2011, dated 2018)
Where two headings read alike, the source gives them in different places.

Tested on: Ba/F3-KDR-transfected cells in the presence of 10 ng/ml murine IL3
Experiment: Ba/F3-KDR (plus IL3) cellular proliferation counterscreen, Alamar Blue
Format: cell-based
Details: plus 10 ng/ml murine IL3; for IC50: Mus musculus
Procedure: Ba/F3-KDR (Minus IL3 or Plus IL3) (Cellular Proliferation Assay)
[…] Cells were put in an incubator at 37° C. and 5% CO2. After 24 hours, 10 μl of Alamar Blue solution (0.5 mM K3Fe(CN)6, 0.5 mM KaFe(CN)6, 0.15 mM Resazurin and 100 mM Phosphate Buffer) was added to the wells, incubated for 4 hours at 37° C. and 5% CO2 before RFU's (Relative Fluorescence Units) (ex. 540 nm., em. 590 nm.) were measured in a flurorescence plate reader.
As a counterscreen the same experiment was performed in the presence of 10 ng/ml murine IL3.
In a 96 well plate, 180 μl cell culture medium (phenol red free RPMI-1640, 10% FBS, 2 mM L-Glutamine and 50 μg/ml Gentamycin) containing 10000 cells per well of Ba/F3-KDR-transfected cells were pipette and 20 μl of compound dilution in DMSO was added. Cells were put in an incubator at 37° C. and 5% CO2. After 24 hours, 40 μl of Alamar Blue solution (0.5 mM K3Fe(CN)6, 0.5 mM KaFe(CN)6, 0.15 mM Resazurin and 100 mM Phosphate Buffer) was added to the wells, incubated for 4 hours at 37° C. and 5% CO2 RFU's (Relative Fluorescence Units) (ex. 540 nm., em. 590 nm.) were measured in a flurorescence plate reader.

[1] = read-out: BAF3-KDR (PLUS IL3) 384 well pIC50 (converted)
[2] = read-out: BAF3-KDR (PLUS IL3) 96 well pIC50 (converted)

Structure (SMILES) | BAF3-KDR (PLUS IL3) 384 well pIC50 | IC50 [1] | IC50 [2]
COc1cc(OC)cc(N(CC(O)C(F)(F)F)c2ccc3ncc(-c4cccnc4)nc3c2)c1 (single isomer, unassigned) [Compound 54] | <5 |  | 
COc1cc(OC)cc(N(CC(OC(C)=O)C(F)(F)F)c2ccc3ncc(-c4cccnc4)nc3c2)c1 (single isomer, unassigned) [Compound 75] | <5 |  | 
COCCCN(c1cc(OC)cc(OC)c1)c1ccc2ncc(-c3ccn(C)c3)nc2c1 [Compound 3] |  | > 10 µM | 
COCCN(c1cc(OC)cc(OC)c1)c1ccc2ncc(-c3ccn(C)c3)nc2c1 [Compound 6] |  | > 10 µM | 
COc1cc(OC)cc(N(CCO)c2ccc3ncc(-c4cccnc4)nc3c2)c1 [Compound 9] |  | > 10 µM | 
COc1cc(OC)cc(N(CCO)c2ccc3ncc(-c4ccncc4)nc3c2)c1 [Compound 11] |  | > 10 µM | 
COc1cc(OC)cc(N(CCNC(C)C)c2ccc3ncc(-c4ccncc4)nc3c2)c1 [Compound 12] |  | > 10 µM | 
COc1cc(OC)cc(N(CC2CC2)c2ccc3ncc(-c4ccnn4C)nc3c2)c1 [Compound 18] |  | > 10 µM | 
COc1cc(OC)cc(N(CC2CC2)c2ccc3ncc(-n4cnc(C)c4)nc3c2)c1 [Compound 30] |  | > 10 µM | > 10 µM
COc1cc(OC)cc(N(CC2CC2)c2ccc3ncc(-c4cn(CCO)nn4)nc3c2)c1 [Compound 40] |  | > 10 µM | > 10 µM
COc1cc(OC)cc(N(CCCO)c2ccc3ncc(-c4ccc(N5CCNCC5)nc4)nc3c2)c1 [Compound 48] |  | 5.25 µM | 
COc1cc(OC)cc(N(CC2CC2)c2ccc3ncc(-n4cncn4)nc3c2)c1 [Compound 50] |  | > 10 µM | > 10 µM
COc1cc(OC)cc(N(Cc2cccc(CN)n2)c2ccc3ncc(-c4ccc(N)nc4)nc3c2)c1 [Compound 51] |  | > 10 µM | 
COc1cc(OC)cc(N(CC2CC2)c2ccc3ncc(-c4ccn(CCO)c4)nc3c2)c1 [Compound 56] |  | > 10 µM | > 10 µM
COc1cc(OC)cc(N(CC2CC2)c2ccc3ncc(Nc4cnn(C)c4)nc3c2)c1 [Compound 61] |  | > 10 µM | 
COc1cc(OC)cc(N(CC2CC2)c2ccc3ncc(-c4cnn(C)n4)nc3c2)c1 [Compound 70] |  | > 10 µM | > 10 µM
COc1cc(OC)cc(N(CC2CC2)c2ccc3ncc(-c4cn(C)nn4)nc3c2)c1 [Compound 71] |  | > 10 µM | > 10 µM
COc1cc(OC)cc(N(CC(O)CO)c2ccc3ncc(-c4ccc(N)nc4)nc3c2)c1 (centres unmarked) [Compound 74] |  | > 10 µM | 
COc1cc(OC)cc(N(CC2CC2)c2ccc3ncc(-c4nnnn4C)nc3c2)c1 [Compound 83] |  | > 10 µM | > 10 µM
COc1cc(OC)cc(N(CC2CC2)c2ccc3ncc(-c4ocnc4C)nc3c2)c1 [Compound 104] |  | > 10 µM | 
COc1cc(OC)cc(N(CCO)c2ccc3ncc(-c4ccc(OC)nc4)nc3c2)c1 [Compound 111] |  | > 10 µM | 
COc1cc(OC)cc(N(CCCO)c2ccc3ncc(-c4cccnc4)nc3c2)c1 [Compound 112] |  | > 10 µM | 
CNc1ccc(-c2cnc3ccc(N(CCCO)c4cc(OC)cc(OC)c4)cc3n2)cn1 [Compound 116] |  | > 10 µM | 
COc1cc(OC)cc(N(CCCO)c2ccc3ncc(-c4ccc(F)nc4)nc3c2)c1 [Compound 117] |  | > 10 µM | 
COc1cc(OC)cc(N(CCO)c2ccc3ncc(-c4ccnc(C(=O)NCCCN)c4)nc3c2)c1 [Compound 123] |  | > 10 µM | 
COc1cc(OC)cc(N(CCCO)c2ccc3ncc(-c4ccc(N5CCOCC5)nc4)nc3c2)c1 [Compound 124] |  | > 10 µM | 
COc1cc(OC)cc(N(CCCNCC(F)(F)F)c2ccc3ncc(-c4ccc(N(C)C(=O)OC(C)(C)C)nc4)nc3c2)c1 [Compound 127] |  | > 10 µM | 
COc1cc(OC)cc(N(CCCO)c2ccc3ncc(-c4ccnc(NC(=O)OC(C)(C)C)c4)nc3c2)c1 [Compound 128] |  | > 10 µM | 
